Assays:
[1] = Destaining of boiling beads stained with tannic acid and iron(III) chloride (Example 2); conditions: for Destaining: Experiment #1, 10 mL 0.1M solution on stained boiling beads; for Removal of stains (conclusion): Experiments #1 and #2, comparison with EDTA
Experimental: To simulate the effects of staining caused by coffee and tea, tannic acid and iron(III) chloride solutions were prepared.
To prepare the tannic acid solution, solid tannic acid was used. 0.1M FeCl3.6H2O and added to 100 mL of distilled water. 0.1 M solutions of MOPS buffer was prepared. Then 0.1M solutions of EDTA in distilled water, C-2 in MOPS, C-6 in MOPS, and deferiprone in MOPS, were prepared. For a tooth like structure, boiling beads made from synthetic silicate were used.
Methods were as follows: Experiment #1: Comparison of EDTA, C-2, and deferiprone destaining: The procedure was broken down into 2 phases: staining and destaining. In the staining phase, 7 beads were added to each of the 12 vials. 3 vials were labeled control, 3 were labeled EDTA, 3 were labeled C-2, and 3 were labeled Deferiprone. 0.1 mL of the tannic acid and iron(III) chloride were pipetted onto the boiling beads in the vials. After mixing, 9.8 mL of 0.1 M, pH 7 MOPS was added. The vials were left to stand for a week at room temperature to complete the staining. For the destaining phase, the liquid in each vial was discarded and the beads were rinsed with distilled water 3 times. Then the solutions were added to the vials according to Table 1, swirled and left for the destaining phase.
Experiment #2: Comparison of deferiprone, C-2, and C-6 destaining: The same procedure was followed for Experiment 2 except EDTA was replaced with C-6 solution.

yeast [2] = assay: Yeast growth curve in liquid YPD media, absorbance at 400 nm; format: cell-based, Saccharomyces cerevisiae; conditions: for Final absorbance / Initial absorbance: 400 nm; for Final absorbance: after 24 hr; for Initial absorbance: start of growth curve; for Effect on yeast growth: growth curve over 24 hr, FIG. 8
Experimental: (§1) The following materials were used: peptone, dextrose/glucose, marmite/yeast extract, agar, 0.1 M EDTA in MOPS solution, 0.1 M C-2 in MOPS solution, 0.1 M C-6 in MOPS solution, and […] Deferiprone in MOPS solution, and water.
(§2) The yeast culture was prepared by adding dry baker's yeast to warm water and streaked on the media plates. Cultures were allowed to grow for 16-24 hours.
The growth curve experiment were carried out by measuring the inhibition of yeast culture in the presence of EDTA, C-2, C-6, and Deferiprone over time via absorbance at 400 nm (see FIG. 8).
The growth curve was used to measure the rate of growth of yeast over an 8 hour period with a final measurement after 24 hours. No growth is seen in the presence of EDTA. C-2, C-6, and Deferiprone show different levels of effectiveness (see FIG. 8).

[3] = Destaining of stained beads and sand white quartz (Example 3); conditions: for Relative destaining effectiveness: comparison of C11, EDTA and Deferiprone
Experimental: Tannic acid and iron chloride solutions were prepared as in Example 2. In order to simulate a tooth like structure, boiling beads made from a synthetic silicate (Techniservice) and white quartz sand were used. Four vials were prepared with the following solutions and solids (Table 3).
0.1 mL of the tannic acid and iron(III) chloride were pipetted into each vial. They were mixed on a vortex for 10 seconds. Then, 9.8 mL of 0.1 M, pH 7.4 MOPS was added to each vial to adjust the pH to a neutral level. MOPS was used to mimic the pH of saliva. The contents were mixed again. […] The vials were left to stand for a week at room temperature. The following table (Table 4) summarizes the components added to the tooth-like solids.
The solids in the vials were washed with approximately 10 mL of MOPS. This step was to simulate a wash of the “tooth” like structure with a “saliva” like buffer. The vials were left for a week to allow time for unstained areas of the beads to stain.
After the structures were stained, experiments were carried out to test if the stains could be removed. Approximately 5 mL of C11 (1-(11′-Carboxydecyl)-3-Hydroxy-2-Methyl-4-Pyridinone) solution was pipetted into Vials #1 and #3. Vials #2 and #4 served as controls. The contents of the vials were then mixed by vortexing. The vials were left to de-stain for a week. After a week, the liquid was drained from the vials and a fresh 5 mL of C11 was pipetted. Vials were left to de-stain for another week.
EDTA was prepared as follows. 100 mM of EDTA was made by adding 9.164 g to 250 mL of deionized water. The solution was stirred for 10 minutes, then placed on a heater.
Three new vials were filled with 2.2346 g, 2.0195 g, 2.2600 g of beads followed by the salt (0.1 mL), then the tannic acid (0.1 mL), and finally the MOPS. […] Three other vials were filled with 2.115 g, 2.009 g, 2.115 g of sand white quartz and the solutions were added in sequence. […] The solutions were left to continue to stain for a week. After a week, all the vials were rinsed with 10 mL of MOPS. Supernatant was removed by using filter paper. 10 mL of MOPS was then added and the contents were stirred then left to sit for a week.
1 mL of the EDTA was pipetted into each vial. The resulting concentration was 0.01 M of EDTA in each vial. Vials were then mixed to ensure proper contact with the MOPS and EDTA molecules. Vials were left to sit for a week.
Two more pairs of vials (4th and 5th pairs) were prepared—one with the beads and the other with the sand. MOPS solution was added, but not EDTA. […] Two more pairs of vials (6th and 7th pairs) were prepared, again, one with beads and the other with sand. The purpose of these controls was to test if the destaining process could be accelerated. The EDTA concentration was increased from 0.01 M to 0.1 M and 10 mL of it was subsequently added to the vials along with 10 mL of MOPS.
(§3) 0.1 M of Deferiprone solution was made by mixing 1.3957 g and 100 mL of distilled water into a volumetric flask. […] The tables below (Table 5 and Table 6) summarizes the contents of the vials used in this part of the experiment.
These vials were left to stand for a week. After the week the vials were rinsed with distilled water until the liquid that the beads/sand were suspended in were clear.
The next set of experiments was carried out to determine how quickly the compositions were able to remove the stains.
Beads and sand solutions were rinsed with 10 mL of distilled water. […] The solutions were prepared as follows: (Table 11).

[4] = system: yeast (Saccharomyces cerevisiae); assay: Inhibition of yeast growth when prepared with dextrose-agar plates; format: cell-based
Excerpt: The compounds of the present disclosure can reduce stains from the surfaces of teeth. The present compounds may also have anti-microbial activity. […] Thus, the compounds and compositions of the present disclosure may be used for reduction of teeth stains and/or as antimicrobials.

yeast [5] = assay: Disk diffusion on YPD agar plates with yeast cultures; format: cell-based, Saccharomyces cerevisiae; conditions: plates incubated at 30° C.
Experimental: as §1
Plate media was prepared containing 2% dextrose, 2% peptone, 0.36 g of yeast extract, and 1.5% agar in 1 L of water. The mixture was heated to dissolve the ingredients, and then autoclaved. 10 mL of the media was added to petri dishes to prepare plates.
as §2
Disks to which C-2, C-6, EDTA, or Deferiprone were added were added to petri dishes containing yeast cultures. The plates were incubated at 30° C. The effect on yeast growth was visualized and measured over time. The zone sizes were measured to the nearest millimeter using a ruler or caliper, including the diameter of the disk in the measurement. The measurements were rounded up to the nearest millimeter.

[6] = Dissolution of deferiprone in distilled water; format: physicochemical; conditions: 0.1 M in distilled water; room temperature; magnetic bar
Experimental: as §3

| SMILES | Destaining [1] | Final absorbance (yeast [2]) | Initial absorbance (yeast [2]) | Effect on yeast growth (yeast [2]) | Relative destaining effectiveness [3] | Growth of yeast ([4]; 0.001 M) | Zone diameter (including the disk) (yeast [5]) | Removal of stains (conclusion) [1] | other results |
| --- | --- | --- | --- | --- | --- | --- | --- | --- | --- |
| O=C(O)CN(CCN(CC(=O)O)CC(=O)O)CC(=O)O [EDTA, ethylenediaminetetraacetic acid] | slight difference after 15 minutes | 0.481 | 0.375 | No growth | followed by EDTA |  |  |  | Destaining of beads ([3]; 0.01 M EDTA in MOPS, beads, after a week): partially destained; Destaining of sand (colour of solution) ([3]; 0.01 M EDTA in MOPS, white quartz sand, after a week): solutions were clear; Bleaching of beads and sand ([3]; EDTA 0.01 M to 0.1 M, beads and sand, after over a month): most of the beads and sand were bleached |
| Cc1c(O)c(=O)ccn1CCCCCC(=O)O [C-6, 1-(6′-Carboxypentyl)-3-Hydroxy-2-Methyl-4-Pyridinone] |  | 1.840 |  | effective, although the effect was less than EDTA and Deferiprone |  | inhibited the growth of yeast | 1.45 cm | effective in removal of stains and act to remove stains faster than EDTA |  |
| Cc1c(O)c(=O)ccn1CC(=O)O [C-2, 1-Carboxymethyl-3-Hydroxy-2-Methyl-Pyrid-4-one] | Destaining was immediately noted | 1.761 |  | effective, although the effect was less than EDTA and Deferiprone |  | inhibited the growth of yeast | 1.55 cm | effective in removal of stains and act to remove stains faster than EDTA |  |
| Cc1c(O)c(=O)ccn1C [Deferiprone, 3-hydroxy-1,2-dimethylpyridin-4(1H)-one] | Destaining was immediately noted | 0.762 | 0.389 |  | most effective |  |  | effective in removal of stains and act to remove stains faster than EDTA | Growth of yeast ([4]; 0.003 M): inhibited the growth of yeast; Duration of effective destaining ([3]; speed experiment, all Deferiprone dilutions (10 mL, 1 mL, 0.1 mL, 0.01 mL of 0.1M)): For about an hour the destaining for all the vials except the controls continued to be effective; Stain removal immediately after addition ([3]; speed experiment, vials A3 and B3, 10 mL of 0.1M Deferiprone): the stains were removed; Stained removed? ([3]; vial A2: beads, 10 mL of 0.1M deferiprone, after a week): Yes; Stained removed? ([3]; vial A3: beads, 1 mL of 0.1M deferiprone & 9 mL of distilled water, after a week): Yes; Stained removed? ([3]; vial B2: sand white quartz, 10 mL of 0.1M deferiprone, after a week): Yes; Stained removed? ([3]; vial B3: sand white quartz, 1 mL of 0.1M deferiprone & 9 mL of distilled water, after a week): Yes; Discoloration of the solution after addition ([3]; vials A2 and B2 (beads, sand), 10 mL of 0.1M deferiprone): immediate discoloration; Discoloration of the solution after addition ([3]; vials A3 and B3 (beads, sand), 1 mL of 0.1M deferiprone & 9 mL of distilled water): relatively slower discoloration; Solubility [6]: slow solubility was observed |

— patent US20180338897A1, “ORAL COMPOSITIONS FOR REDUCING DENTAL STAINS” (New York University, priority 2017, published 2018)
